Reference: article PMC7764243, “Alterins Produced by Oyster-Associated Pseudoalteromonas Are Antibacterial Cyclolipopeptides with LPS-Binding Activity” (Marine Drugs, 2020)
In brackets after ≈: the same amount, converted by molar mass. Read-outs that look alike come from different tables or passages of the source. *1 amine or outer side, *2 acyl side, *3 side chain or, on linkers, in order; H or OH if unused. Where a SMILES comes first, the peptide text is derived from it. Bridges are numbered along the chain shown (N, C = ends). [ ]: non-standard residue; d: D form. The star is where a group is joined. ξ: configuration not given here. Dab(3ξ-OH) = O=C([C@@H](N[*:1])C(O)CN[*:3])[*:2]; X1 = C/C=C(/N[*:1])C(=O)[*:2]; Nonanoyl = CCCCCCCCC(=O)*; Octanoyl = CCCCCCCC(=O)*; Dab = NCC[C@H](N)C(=O)O

Tests used:
[1] = system: Pseudoalteromonas hCg-6; format: cell-based, Pseudoalteromonas sp.; settings: 48 h
Method: (§1) Antibacterial activity was assayed against a panel of micro-organisms including human and aquaculture pathogenic bacterial species. MICs were performed and defined according to internationally recognized standards (CLSI [21]). Polymyxin B (PMB), an antibiotic CLP produced by Paenibacillus polymyxa, was used as positive control. The major produced alterins, i.e., alt_952, alt_954, alt_970 and alt_980 were assayed against the whole panel of target cells while the minor ones were only tested against a few bacterial strains (Table 2).
(§2) The bacterial strains Aeromonas caviae CIP 7616, Aeromonas hydrophila CIP 7614, Escherichia coli ML35, Escherichia coli SBS 363, Salmonella enterica CIP 8297 and Yersinia ruckeri ATCC 29473 were grown in Tryptic Soy Broth. The marine bacterial strains Vibrio crassostreaeJ2–9, Vibrio tasmaniensisLGP32, Vibrio tapetis CECT 4600 were grown in Marine Broth. All of them were cultivated at optimal temperature according to ATCC and CIP specifications. The strain Vibrio parahaemolyticus13-028A/3 was grown at 28 °C in Tryptic Soy Broth supplemented in NaCl (20 g.L^−1) according to [47]. The strains Pseudoalteromonas sp. hCg-6 and hCg-42 were cultured using a synthetic medium containing: 17.11 g sucrose, 30 g sea salts (Sigma-S9883), 7.6 g K2HPO4, 3 g KH2PO4 and 20 mL MEM 50X (Dulbecco) per liter. The cultures were grown at 18 °C for 72 h with shaking (100 rpm).
(§3) MICs were determined using broth microdilution method according to [21]. To resume, antibacterial compounds ranging from 0.1 to 100 µM were assayed against the target bacteria in mid-logarithmic phase culture (1.10^6 UFC.mL^−1) in adapted culture medium according to the strain. MICs were examined by unaided eye after a 48h-incubation time at the optimal temperature growth. The lipopeptide PMB (Sigma-P4932) was used as antibiotic control.

[2] = system: V. harveyi ORM4; format: cell-based, Vibrio harveyi
Method: as §1, §3

[3] = system: V. tasmaniensis LGP 32; format: cell-based, Vibrio tasmaniensis; settings: 48 h
Method: as §1, §2, §3

[4] = system: Y. ruckeri ATCC 29473; format: cell-based, Yersinia ruckeri
Method: as §1, §2, §3

[5] = system: A. hydrophila CIP 7614; format: cell-based, Aeromonas hydrophila
Method: as §1, §2, §3

[6] = system: S. enterica CIP 8297; format: cell-based, Salmonella enterica; settings: broth microdilution, 0.1 to 100 µM, 1.10^6 UFC/mL, 48 h, read by unaided eye
Method: as §1, §2, §3

[7] = system: P. aeruginosa ATCC 27853; format: cell-based, Pseudomonas aeruginosa
Method: as §1, §3

[8] = system: E. coli SBS363; format: cell-based, Escherichia coli; settings: E. coli SBS363 (short-chain LPS); broth microdilution, 0.1 to 100 µM, 1.10^6 UFC/mL, 48 h, read by unaided eye
Method: as §1, §2, §3

[9] = system: E. coli ML35; format: cell-based, Escherichia coli
Method: as §1, §2, §3

[10] = system: V. parahaemolyticus 13-028A/3; format: cell-based, Vibrio parahaemolyticus; settings: broth microdilution, 0.1 to 100 µM, 1.10^6 UFC/mL, 48 h, read by unaided eye
Method: as §1, §2, §3

[11] = system: V. tapetis CECT 4600T; format: cell-based, Vibrio tapetis; settings: V. tapetis CECT 4600T; broth microdilution, 0.1 to 100 µM, 1.10^6 UFC/mL, 48 h, read by unaided eye
Method: as §1, §2, §3

[12] = system: A. caviae CIP 7616; format: cell-based, Aeromonas caviae; settings: broth microdilution, 0.1 to 100 µM, 1.10^6 UFC/mL, 48 h, read by unaided eye
Method: as §1, §2, §3

[13] = system: Pseudoalteromonas hCg-42; format: cell-based, Pseudoalteromonas sp.; settings: Pseudoalteromonas hCg-42 (producing strain); broth microdilution, 0.1 to 100 µM, 1.10^6 UFC/mL, 48 h, read by unaided eye
Method: as §1, §2, §3

Compound | MIC [1] [µM] | MIC ([2]; ORM4, 48 h) [µM] | MIC [3] [µM] | MIC ([4]; ATCC 29473, 48 h) [µM] | MIC ([5]; CIP 7614, 48 h) [µM] | MIC [6] [µM] | MIC ([7]; ATCC 27853, 48 h) [µM] | MIC [8] [µM] | MIC ([9]; ML35, 48 h) [µM] | MIC [10] [µM] | MIC [11] [µM] | MIC [12] [µM] | MIC [13] [µM] | MIC ([1]; Pseudoalteromonas hCg-6 (producing strain), broth microdilution, 0.1 to 100 µM, 1.10^6 UFC/mL, read by unaided eye) [µM] | MIC ([2]; V. harveyi ORM4, broth microdilution, 0.1 to 100 µM, 1.10^6 UFC/mL, 48 h, read by unaided eye) [µM] | MIC ([3]; V. tasmaniensis LGP 32, broth microdilution, 0.1 to 100 µM, 1.10^6 UFC/mL, read by unaided eye) [µM] | MIC ([4]; Y. ruckeri ATCC 29473, broth microdilution, 0.1 to 100 µM, 1.10^6 UFC/mL, 48 h, read by unaided eye) [µM] | MIC ([5]; A. hydrophila CIP 7614, broth microdilution, 0.1 to 100 µM, 1.10^6 UFC/mL, 48 h, read by unaided eye) [µM] | MIC ([7]; P. aeruginosa ATCC 27853, broth microdilution, 0.1 to 100 µM, 1.10^6 UFC/mL, 48 h, read by unaided eye) [µM] | MIC ([9]; E. coli ML35 (long-chain LPS), broth microdilution, 0.1 to 100 µM, 1.10^6 UFC/mL, 48 h, read by unaided eye) [µM]
C/C=C1/NC(=O)[C@@H](NC(=O)CCCCCCC)C(O)CNC(=O)[C@H](C(O)CN)NC(=O)[C@H](C(O)CN)NC(=O)[C@H](CCCNC(=N)N)NC(=O)[C@H](CC(C)C)NC(=O)[C@H](CCN)NC1=O (stereo partly drawn) [alt_926] (Octanoyl-[Dab(3ξ-OH)][X1][Dab]LR[Dab(3ξ-OH)][Dab(3ξ-OH)]; lactam 1-C) | >100 | 50 (≈ 46.4 µg/mL) | 50 (≈ 46.4 µg/mL) | 50 (≈ 46.4 µg/mL) | >100 | 12.5 (≈ 11.6 µg/mL) | >100 | 50 (≈ 46.4 µg/mL) | 100 (≈ 92.7 µg/mL) | – | – | – | – | – | – | – | – | – | – | –
C/C=C1/NC(=O)[C@@H](NC(=O)CCCCCCCC)C(O)CNC(=O)[C@H](C(O)CN)NC(=O)[C@H](C(O)CN)NC(=O)[C@H](CCCNC(=N)N)NC(=O)[C@H](CC(C)C)NC(=O)[C@H](CCN)NC1=O (stereo partly drawn) [alt_940] (Nonanoyl-[Dab(3ξ-OH)][X1][Dab]LR[Dab(3ξ-OH)][Dab(3ξ-OH)]; lactam 1-C) | >100 | 6.25 (≈ 5.88 µg/mL) | 6.25 (≈ 5.88 µg/mL) | 6.25 (≈ 5.88 µg/mL) | 25 (≈ 23.5 µg/mL) | – | 50 (≈ 47.1 µg/mL) | 25 (≈ 23.5 µg/mL) | 50 (≈ 47.1 µg/mL) | – | – | – | – | – | – | – | – | – | – | –
Polymyxin B [PMB, reference compound] | – | – | – | – | – | 0.8 | – | 0.2 | – | >100 | >100 | 3.1 | >100 | >100 | 25 | 3 | 0.4 | 0.8 | 1.6 | 3.1
